The record followed here is publication PMC7539012, “Hyperphosphorylated tau aggregation and cytotoxicity modulators screen identified prescription drugs linked to Alzheimer's disease and cognitive functions” (Scientific Reports, 2020).

Structures can show the parent of a compound that is named as a salt. Where a SMILES comes first, the peptide text is derived from it. [ ]: non-standard residue; d: D form. pGlu = O=C1CC[C@@H](C(=O)O)N1; Thz = O=C(O)[C@@H]1CSCN1

The first test concerns T1, 1N4R p-tau.
T1 construct: made in house; host or cells: E. coli (PIMAX system)
The experiment in a line: p-tau aggregation modulator screen of 1280-compound library (ThS fluorescence net change over 16 h).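 As to ThS net change: 30 µM compound with 6 µM p-tau over 16 h.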 The test is classed as biochemical. Also noted: key to PTAI>3SD: *: PTAI>3SD.
Conditions: not given
For `c1ccc2c(c1)Nc1ccccc1S2` [Phenothiazine], the ThS net change is given as 421.

With `CC(COc1ccccc1)N(CCCl)Cc1ccccc1` (stereo not shown) [Phenoxybenzamine hydrochloride], the ThS net change turned out to be 560.

Compound `NC(=O)OCCCc1ccccc1` [Phenprobamate] yielded a ThS net change of 323.

In the case of `CC(N)C(O)c1ccccc1` (stereo not shown) [Phenylpropanolamine hydrochloride], the ThS net change is reported as 395.

In the case of `CC[N+]1(C)CCCC(OC(=O)C(O)(c2ccccc2)c2ccccc2)C1` (stereo not shown) [Pipenzolate bromide], the ThS net change stood at 395.

On to `COc1cc(NC(C)CCCN)c2ncccc2c1` (stereo not shown) [Primaquine diphosphate], for which the ThS net change was 250.

On to `CNNCc1ccc(C(=O)NC(C)C)cc1` [Procarbazine hydrochloride], for which the ThS net change is recorded as 457.

Still in this test, the particulars now being: 1280-compound library screen; ThS fluorescence net change over 16 h.
Compound `CCOc1ccc(NC(C)=O)cc1` [Phenacetin] showed a ThS net change of 400.

Turning to `O=C1c2ccccc2C(=O)C1c1ccccc1` [Phenindione], the ThS net change amounted to 378.

With `CC(N/C(=N\C#N)Nc1ccncc1)C(C)(C)C` (stereo not shown) [Pinacidil], the ThS net change was determined as 391.

For the compound `CCc1ccc(CCOc2ccc(CC3SC(=O)NC3=O)cc2)nc1` (stereo not shown) [Pioglitazone], the ThS net change amounted to 410.

In turn, `CCN1CCCC(OC(=O)C(c2ccccc2)c2ccccc2)C1` (stereo not shown) [Piperidolate hydrochloride] had a ThS net change of 406.

Consider `NC(=O)CN1CCCC1=O` [Piracetam], for which the ThS net change stood at 406.

Take `Cc1nc2ccccn2c(=O)c1CCN1CCC(C(=O)c2ccc(F)cc2)CC1` [Pirenperone]: the ThS net change was 388.

As for `Cl.c1cnc(N2CCN(Cc3ccc4c(c3)OCO4)CC2)nc1` [Piribedil hydrochloride], the ThS net change stood at 392.

The compound `CCn1cc(C(=O)O)c(=O)c2cnc(N3CCCC3)nc21` [Piromidic acid] returned a ThS net change of 394.

Regarding `CC(=O)Nc1ccc(OCC(O)CNC(C)C)cc1` (stereo not shown) [Practolol], the ThS net change amounted to 383.

Regarding `CCCN[C@H]1CCc2nc(N)sc2C1` [Pramipexole dihydrochloride], the ThS net change came to 385.

Compound `CCCCOc1ccc(OCCCN2CCOCC2)cc1` [Pramoxine hydrochloride] displayed a ThS net change of 381.

In turn, `CCCNC(C)C(=O)Nc1ccccc1C` (stereo not shown) [Prilocaine hydrochloride] displayed a ThS net change of 378.

Compound `CCCC(C(=O)OCCN(CC)CC)(c1ccccc1)c1ccccc1` [Proadifen hydrochloride] had a ThS net change of 390.

In the case of `CCN(CC)CCNC(=O)c1ccc(N)cc1` [Procainamide hydrochloride], the ThS net change turned out to be 379.

The same test, now with this note: 1280-compound library screen; […].
In turn, `CC(Oc1ccccc1)C(=O)N[C@@H]1C(=O)N2[C@@H]1SC(C)(C)[C@@H]2C(=O)[O-].[K+]` (stereo partly shown) [Phenethicillin potassium salt] displayed a ThS net change of 387.

As for `CC(C)(N)Cc1ccccc1.Cl` [Phentermine hydrochloride], the ThS net change was 408.

For `C=C(C)[C@@H]1[C@H]2OC(=O)[C@@H]1[C@]1(O)C[C@H]3O[C@]34C(=O)O[C@H]2[C@]14C` [Picrotoxinin], the ThS net change stood at 390.

`CC[C@@H]1C(=O)OC[C@@H]1Cc1cncn1C` [Pilocarpine nitrate] came in with a ThS net change of 378.

`COc1cc([C@@H]2c3cc4c(cc3[C@H](O)[C@H]3COC(=O)[C@H]23)OCO4)cc(OC)c1OC` [Podophyllotoxin]: the ThS net change was determined as 402.

The compound `C[n+]1ccccc1/C=N/O` [Pralidoxime chloride] registered a ThS net change of 397.

On to `CC(C)C[C@H](CN)CC(=O)O` [Pregabalin], for which the ThS net change worked out at 400.

Turning to `CC(Cc1ccccc1)NCCC(c1ccccc1)c1ccccc1` (stereo not shown) [Prenylamine lactate], the ThS net change was 401.

Staying with this test, now noted: flag: p-tau aggregation inhibitor, ThS net change more than 3 SD from mean.
As for `Nc1ccc(/N=N/c2ccccc2)c(N)n1` [Phenazopyridine hydrochloride], the “PTAI>3SD” value was “*”.

Staying with this test, now noted: library screen, ThS fluorescence net change over 16 h with p-tau.
In turn, `Nc1ccc(/N=N/c2ccccc2)c(N)n1` [Phenazopyridine hydrochloride] displayed a ThS net change of 12.

On to `CN(C)CCC(c1ccccc1)c1ccccn1` (stereo not shown) [Pheniramine maleate], for which the ThS net change came out at 318.

Compound `CN1CCC(=C2c3ccccc3Sc3ccccc32)CC1` [Pimethixene maleate] came in with a ThS net change of 320.

`O=c1[nH]c2ccccc2n1C1CCN(CCCC(c2ccc(F)cc2)c2ccc(F)cc2)CC1` [Pimozide] registered a ThS net change of 274.

Consider `CC(=O)c1ccc2c(c1)N(CCCN1CCC(CCO)CC1)c1ccccc1S2` [Piperacetazine], for which the ThS net change is given as 243.

Compound `CN1CCN(CC(=O)N2c3ccccc3C(=O)Nc3cccnc32)CC1` [Pirenzepine dihydrochloride] yielded a ThS net change of 322.

The compound `O=C(Nc1cccc2c(=O)cc(-c3nnn[nH]3)oc12)c1ccc(OCCCCc2ccccc2)cc1` [Pranlukast] showed a ThS net change of 288.

The test is the same for the next values; noted with them: p-tau aggregation modulator screen of 1280-compound library; ThS fluorescence net change.
`C1CCC(C(CC2CCCCN2)C2CCCCC2)CC1` (stereo not shown) [Perhexiline maleate]: the ThS net change was found to be 342.

`OCCN1CCN(CCCN2c3ccccc3Sc3ccc(Cl)cc32)CC1` [Perphenazine] came in with a ThS net change of 328.

Take `NNCCc1ccccc1` [Phenelzine sulfate]: the ThS net change is 369.

As to `[H]/N=C(/N)N/C(=N/[H])NCCc1ccccc1` [Phenformin hydrochloride], the ThS net change turned out to be 369.

For `Cc1ccc(N(CC2=NCCN2)c2cccc(O)c2)cc1` [Phentolamine hydrochloride], the ThS net change was 334.

The compound `CC(C)NCC(O)COc1cccc2[nH]ccc12` (stereo not shown) [Pindolol] registered a ThS net change of 331.

Take `CCn1cc(C(=O)O)c(=O)c2cnc(N3CCNCC3)nc21` [Pipemidic acid]: the ThS net change was 377.

As to `CCN1CCN(C(=O)N[C@@H](C(=O)N[C@@H]2C(=O)N3[C@@H]2SC(C)(C)[C@@H]3C(=O)O)c2ccccc2)C(=O)C1=O` [Piperacillin sodium salt], the ThS net change is 354.

Compound `CN1C(C(=O)Nc2ccccn2)=C(O)c2ccccc2S1(=O)=O` [Piroxicam] displayed a ThS net change of 329.

The compound `CC(C(=O)O)c1ccc2c(c1)Cc1cccnc1O2` (stereo not shown) [Pranoprofen] yielded a ThS net change of 345.

For the compound `C[C@]12C=CC(=O)C=C1CC[C@@H]1[C@@H]2[C@@H](O)C[C@@]2(C)[C@H]1CC[C@]2(O)C(=O)CO` [Prednisolone], the ThS net change is listed as 351.

As for `C[C@]12C=CC(=O)C=C1CC[C@@H]1[C@@H]2C(=O)C[C@@]2(C)[C@H]1CC[C@]2(O)C(=O)CO` [Prednisone], the ThS net change is 366.

The compound `CS(=O)(=O)O.OC(CCN1CCCCC1)(c1ccccc1)c1ccccc1` [Pridinol methanesulfonate salt] displayed a ThS net change of 350.

Compound `CCC1(c2ccccc2)C(=O)NCNC1=O` [Primidone] came in with a ThS net change of 346.

Compound `CCN(CC)CCOC(=O)c1ccc(N)cc1` [Procaine hydrochloride] came in with a ThS net change of 362.

`CN1CCN(CCCN2c3ccccc3Sc3ccc(Cl)cc32)CC1` [Prochlorperazine dimaleate]: the ThS net change was 357.

Still in this test, the particulars now being: p-tau aggregation modulator screen of 1280-compound library; […].
`COc1ccc(C(=O)NCc2cccnc2)cc1C(=O)NCc1cccnc1.O` [Picotamide monohydrate]: the ThS net change was 355.

As to `COc1cc2nc(N3CCN(C(=O)c4ccco4)CC3)nc(N)c2cc1OC` [Prazosin hydrochloride], the ThS net change came out at 367.

The test is the same for the next values; noted with them: p-tau aggregation modulator screen of the compound library, ThS fluorescence net change.
As for `CCC[C@H](N[C@@H](C)C(=O)N1[C@H](C(=O)O)C[C@@H]2CCCC[C@@H]21)C(=O)OCC` [Perindopril], the ThS net change is given as 426.

`O=C1[C@H]2CCCC[C@H]2C(=O)N1CCCCN1CCN(c2nsc3ccccc23)CC1` [Perospirone] returned a ThS net change of 426.

Take `CN1C(=O)CC(c2ccccc2)C1=O` (stereo not shown) [Phensuximide]: the ThS net change was 453.

On to `CCCCC1C(=O)N(c2ccccc2)N(c2ccccc2)C1=O` [Phenylbutazone], for which the ThS net change is 413.

In turn, `O=C(O)c1ccccc1C(=O)Nc1ccc(S(=O)(=O)Nc2nccs2)cc1` [Phthalylsulfathiazole] returned a ThS net change of 425.

On to `O=C1CC[C@@H](C(=O)N2CSC[C@H]2C(=O)O)N1` [Pidotimod] ([pGlu]-[Thz]-OH), for which the ThS net change was determined as 441.

Turning to `NS(=O)(=O)c1cc(C(=O)O)cc(N2CCCC2)c1Oc1ccccc1` [Piretanide], the ThS net change is given as 435.

On to `CS(=O)(=O)O.Cc1ccc2c(c1)c1c3n2CCNC3CCC1` (stereo not shown) [Pirlindole mesylate], for which the ThS net change is 461.

With `CC(C)(C)C(=O)OCOC(=O)[C@@H]1N2C(=O)[C@@H](NC(=O)[C@H](N)c3ccccc3)[C@H]2SC1(C)C` [Pivampicillin], the ThS net change worked out at 481.

In the case of `CC(C)(C)C(=O)OCOC(=O)[C@@H]1N2C(=O)[C@@H](/N=C/N3CCCCCC3)[C@H]2SC1(C)C` [Pivmecillinam hydrochloride], the ThS net change was determined as 423.

Regarding `CN1CCC(=C2c3ccccc3CCc3sccc32)CC1.O=C(O)CC(O)C(=O)O` [Pizotifen malate], the ThS net change is listed as 437.

Compound `CC[C@H](C)C(=O)O[C@H]1C[C@H](O)C=C2C=C[C@H](C)[C@H](CC[C@@H](O)C[C@@H](O)CC(=O)O)[C@H]21` [Pravastatin] had a ThS net change of 467.

Turning to `O=C(C1CCCCC1)N1CC(=O)N2CCc3ccccc3C2C1` (stereo not shown) [Praziquantel], the ThS net change is 418.

The compound `CCOC(=O)O[C@]1(C(=O)COC(=O)CC)CC[C@H]2[C@@H]3CCC4=CC(=O)C=C[C@]4(C)[C@H]3[C@@H](O)C[C@@]21C` [Prednicarbate, prednicarbate] came in with a ThS net change of 910.

`CC(=O)[C@H]1CC[C@H]2[C@@H]3CC=C4C[C@@H](O)CC[C@]4(C)[C@H]3CC[C@]12C` [Pregnenolone]: the ThS net change is given as 482.

The compound `CCCN(CCC)S(=O)(=O)c1ccc(C(=O)O)cc1` [Probenecid] had a ThS net change of 416.

`CC(C)(Sc1cc(C(C)(C)C)c(O)c(C(C)(C)C)c1)Sc1cc(C(C)(C)C)c(O)c(C(C)(C)C)c1` [Probucol] came in with a ThS net change of 414.
